Laboratory results reported in patent publication US6143780A, “N-arylmethylthioanilide compounds useful for the inhibition of the replication of HIV” (Uniroyal Chemical Company, Inc., priority 1999, dated 2000).
Converted amounts (≈) assume the structure as drawn. “And” between values parts separate entries of the source, which are not always exact repeats. Identical values can stand only once. Like-named read-outs stand apart in the source and are kept apart here.

Experiments:
Type in all cases: cell-based
[1] = system: HIV-1 (IIIB); experiment: inhibition of HIV-1(IIIB) (WT) induced syncytium formation in CEM cells
From the text: (§1) CEM cells were obtained from the American Tissue Cell Culture Collection (Rockville, Md.) . HIV-1 (IIIB) was originally obtained from the culture supernatant of persistently HIV-1-infected H9 cells and was provided by R. C. Gallo and M. Popovic (National Cancer Institute, National Institutes of Health, Bethesda, Md.).
(§2) CEM cells were suspended at ≈300,000 cells per ml of culture medium and infected with approximately 100 CCID50 (CCID50 being the 50% cell culture infective dose) of HIV-1(IIIB) (designated as "WT" in Table 3) or one of the HIV-1 RT mutant strains described above. Then 100 μl of the infected cell suspensions was added to 200 μl microtiter plate wells containing 100 μl of appropriate serial (5-fold) dilutions of the test compounds. The inhibitiory effect of the test compounds on HIV-1 induced syncytium formation in CEM cells was examined microscopically on day 4 post infection. The 50% effective concentration (EC50) was defined as the test compound concentration that inhibits syncytium formation in the HIV-1-infected cell cultures by 50%.

[2] = system: HIV-1/100-Ile; experiment: inhibition of syncytium formation in CEM cells, HIV-1 RT mutant 100-Ile; conditions: Human immunodeficiency virus 1, CCRF-CEM, 96 h, read-out: EC50 100-Ile
From the text: as §1
(§3) The selection and characterization of the HIV-1 RT mutant strains were done as follows: HIV-1/100-Ile ("100-Ile") was selected for resistance against TIBO R82150 as described in Balzarini et al, Virology 192: 246-253 (1993); HIV-1/103-Asn ("103-Asn") was selected for resistance against TIBO R82913 as described in Balzarini et al, Virology 192: 246-253 (1993); HIV-1/106-Ala ("106-Ala") was selected for resistance against nevirapine as described in Balzarini et al, J. Virol. 67: 5353-5359 (1993); HIV-1/Lys-138 ("Lys-138") was selected for resistance against TSAO-m^3T as described in Balzarini et al, Virology 192: 246-253 (1993) and Balzarini et al, Proc. Nat. Acad. Sci. USA 90: 6952-6956 (1993); HIV-1/181-Cys ("181-Cys") was selected for resistance against pyridinone L-697,661 as described in Balzarini et al, Virology 192: 246-253 (1993); and HIV-1/188-His ("188-His") was selected for resistance against HEPT as described in Balzarini et al, Mol. Pharmocol. 44: 694-701 (1993). 188-His was then further converted to HIV-1/188-Leu ("188-Leu") upon further passage in cell culture in the absence of the HEPT. HIV-1/101-Glu ("101-Glu") and HIV-1/190-Glu ("190-Glu") were selected for resistance against the thiocarboxanilide derivative designated as UC38 as described in Balzarini et al, Antiviral Research 27: 219-236 (1995). HIV-1/184-Ile ("184-Ile") was selected for resistance against the combination of 3TC and TSAO-m^3 T as described in Balzarini et al, Molecular Pharm. 49: 882-890 (1996). HIV-1/184-Val ("184-Val") was selected for resistance against 3TC as described in Balzarini et al, Molecular Pharm. 49: 882-890 (1996).
as §2

[3] = system: HIV-1/101-Glu; experiment: inhibition of syncytium formation in CEM cells, HIV-1 RT mutant 101-Glu; conditions: Human immunodeficiency virus 1, CCRF-CEM, 96 h, read-out: EC50 101-Glu
From the text: as §1, §3, §2

[4] = system: 103-Ala; experiment: inhibition of syncytium formation in CEM cells, HIV-1 RT mutant 103-Ala; conditions: Human immunodeficiency virus 1, CCRF-CEM, 96 h, read-out: EC50 103-Ala
[5] = system: 138-Lys; experiment: inhibition of syncytium formation in CEM cells, HIV-1 RT mutant 138-Lys; conditions: Human immunodeficiency virus 1, CCRF-CEM, 96 h, read-out: EC50 138-Lys
From the text: as §1, §3, §2

[6] = system: HIV-1/181-Cys; experiment: inhibition of syncytium formation in CEM cells, HIV-1 RT mutant 181-Cys; conditions: Human immunodeficiency virus 1, CCRF-CEM, 96 h, read-out: EC50 181-Cys
From the text: as §1, §3, §2

[7] = system: HIV-1/184-Ile; experiment: inhibition of syncytium formation in CEM cells, HIV-1 RT mutant 184-Ile; conditions: Human immunodeficiency virus 1, CCRF-CEM, 96 h, read-out: EC50 184-IIe
From the text: as §1, §3, §2

[8] = system: HIV-1/184-Val; experiment: inhibition of syncytium formation in CEM cells, HIV-1 RT mutant 184-Val; conditions: Human immunodeficiency virus 1, CCRF-CEM, 96 h, read-out: EC50 184-Val
From the text: as §1, §3, §2

[9] = system: HIV-1/188-His; experiment: inhibition of syncytium formation in CEM cells, HIV-1 RT mutant 188-His; conditions: Human immunodeficiency virus 1, CCRF-CEM, 96 h, read-out: EC50 188-His
From the text: as §1, §3, §2

[10] = system: HIV-1/190-Glu; experiment: inhibition of syncytium formation in CEM cells, HIV-1 RT mutant 190-Glu; conditions: Human immunodeficiency virus 1, CCRF-CEM, 96 h, read-out: EC50 190-Glu
From the text: as §1, §3, §2

[11] = system: HIV-1/106-Ala; experiment: inhibition of syncytium formation in CEM cells, HIV-1 RT mutant 106-Ala; conditions: Human immunodeficiency virus 1, CCRF-CEM, 96 h, read-out: EC50 106-Ala
From the text: as §1, §3, §2

[12] = system: HIV-1/188-Leu; experiment: inhibition of syncytium formation in CEM cells, HIV-1 RT mutant 188-Leu; conditions: Human immunodeficiency virus 1, CCRF-CEM, 96 h, read-out: EC50 188-Leu
From the text: as §1, §3, §2

[13] = Human immunodeficiency virus 1, IIIB, CCRF-CEM, 96 h, Table 2, day 4 post infection, replicate values, read-out: EC50, Activity Against HIV-1 (IIIB)
[14] = Human immunodeficiency virus 1, IIIB, CCRF-CEM, 96 h, Table 3, HIV-1(IIIB), day 4 post infection, read-out: EC50 WT
[15] = Table 2, day 4 post infection, replicate values, read-out: EC50, Activity Against HIV-1 (IIIB)

SMILES	EC50 [1, 13] [nM]	EC50 [1, 14] [µg/mL]	EC50 [1, 15]	EC50 [2] [µg/mL]	EC50 [3] [µg/mL]	EC50 [4] [µg/mL]	EC50 [5] [µg/mL]	EC50 [6] [µg/mL]	EC50 [7] [µg/mL]	EC50 [8] [µg/mL]	EC50 [9] [µg/mL]	EC50 [10] [µg/mL]	EC50 [11] [µg/mL]	EC50 [12] [µg/mL]
Cc1occc1C(=S)Nc1ccc(Cl)c(COc2cccc(C(F)(F)F)c2)c1 [Compound 5]	3880	0.5	4110 nM and 3840 nM	> 2	> 2	> 2	1.73	0.33	> 2	0.93	> 2	> 2	–	–
Cc1occc1C(=S)Nc1ccc(Cl)c(COc2c(F)ccc(F)c2F)c1 [Compound 45]	–	0.0017	–	0.11	0.04	0.4 (≈ 0.971 µM)	0.012	0.065	0.005	0.0027	0.85	> 2	0.025	1.5
COc1cccc(F)c1OCc1cc(NC(=S)c2ccoc2C)ccc1Cl [Compound 34]	–	0.0022	5.65 nM and 17.4 nM	0.16	0.12	0.85 (≈ 2.09 µM)	0.02	0.1	0.0087	0.005	0.5	> 2	0.1	0.53
Cc1occc1C(=S)Nc1ccc(Cl)c(COc2ccccc2Br)c1 [Compound 40]	–	0.02	35.3 nM and 46 nM and 16.8 nM	1.73	0.4	> 2	0.09	0.75	0.04	0.018	0.4	> 2	0.85	0.7
Cc1occc1C(=S)Nc1ccc(Cl)c(COc2ccccc2C(F)(F)F)c1 [Compound 46]	–	0.0041	39.3 nM and 54.8 nM and 9.14 nM	0.11	0.18	0.55 (≈ 1.29 µM)	0.03	0.5	0.018	0.0093	0.16	> 2	0.47	0.19
Cc1occc1C(=S)Nc1ccc(Cl)c(COc2ccccc2C#N)c1 [Compound 30]	63.5	0.006	68.7 nM and 103 nM	0.33	0.63	> 2	0.042	0.65	0.03	0.021	0.35	> 2	0.7	0.85
CCCc1ccccc1OCc1cc(NC(=S)c2ccoc2C)ccc1Cl [Compound 43]	–	0.03	42.5 nM and 118 nM	1.14	1.35	> 2	0.31	> 0.4	0.13	0.04	0.65	> 2	> 2	> 2
Cc1occc1C(=S)Nc1ccc(Cl)c(COc2ccc(F)cc2Cl)c1 [Compound 47]	1030	0.018	516 nM	0.65	1.47	> 2	0.64	1	0.12	0.05	2	> 2	> 2	> 2
Cc1occc1C(=S)Nc1ccc(Cl)c(COc2ccccc2F)c1 [Compound 18]	117	0.0053	111 nM	0.077	0.24	> 2	0.53	0.1	0.032	0.008	1.73	> 2	1.1	> 2
Cc1ccccc1OCc1cc(NC(=S)c2ccoc2C)ccc1Cl [Compound 8]	107	0.022	–	0.33	1.5	2 (≈ 5.38 µM)	0.19	0.95	0.065	0.02	0.5	≥ 2	1	0.7
Cc1occc1C(=S)Nc1ccc(Cl)c(COc2ccccc2CO)c1 [Compound 25]	–	0.55	3140 nM and 1090 nM and 1490 nM and 1150 nM and 1000 nM	> 2	> 2	> 2	> 2	> 2	1	0.25	> 2	> 2	> 2	> 2
Cc1occc1C(=S)Nc1ccc(Cl)c(COc2ccc(F)cc2)c1 [Compound 11]	–	0.065	85.1 nM and 161 nM and 276 nM	0.95	≥ 2	> 2	0.7	0.14	0.16	0.045	> 2	≥ 2	1.1	≥ 2
Cc1occc1C(=S)Nc1ccc(Cl)c(COc2c(F)cccc2F)c1 [Compound 16]	28.6	0.0031	39.2 nM	0.08	0.069	0.6 (≈ 1.52 µM)	0.018	0.03	0.011	0.0036	0.52	> 2	0.03	0.95
Cc1ccc(Cl)c(OCc2cc(NC(=S)c3ccoc3C)ccc2Cl)c1 [Compound 37]	–	0.025	19.2 nM and 76.6 nM	2.33	1.4	> 2	0.33	> 2	0.14	0.09	0.33	> 2	> 2	0.62
Cc1occc1C(=S)Nc1ccc(Cl)c(COc2ccccc2Cl)c1 [Compound 6, N-3-((2-chlorophenoxy)methyl)-4-chlorophenyl-2-methyl-3-furancarbothioamide]	58.6	0.0067	104 nM	0.23	0.11	1.2 (≈ 3.06 µM)	0.025	0.09	0.047	0.018	0.053	> 2	–	–
